Consider eleven compounds from US10131653B2, “Heterocyclic compound” (TAKEDA PHARMACEUTICAL COMPANY LIMITED, priority 2015, dated 2018).

The target in experiment [1] is T1, human OX2 receptor (Homo sapiens, UniProt O43614).
T1 construct: expressed in transfected cells; host or cells: CHO cells
T1 sequence (O43614 1-444): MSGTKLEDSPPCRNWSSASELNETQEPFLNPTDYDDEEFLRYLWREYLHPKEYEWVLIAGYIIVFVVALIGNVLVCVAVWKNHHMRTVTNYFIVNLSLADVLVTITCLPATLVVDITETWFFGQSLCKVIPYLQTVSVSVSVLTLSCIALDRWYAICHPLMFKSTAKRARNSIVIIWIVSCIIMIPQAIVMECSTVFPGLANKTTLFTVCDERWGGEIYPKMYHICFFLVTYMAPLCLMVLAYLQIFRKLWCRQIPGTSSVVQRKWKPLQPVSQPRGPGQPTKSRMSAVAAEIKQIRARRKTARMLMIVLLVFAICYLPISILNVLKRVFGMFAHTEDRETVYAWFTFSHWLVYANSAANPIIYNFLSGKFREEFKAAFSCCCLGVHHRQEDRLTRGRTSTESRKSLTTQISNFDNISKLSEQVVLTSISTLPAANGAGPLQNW
Kind of experiment: Measurement of orexin receptor antagonistic activity (calcium fluorescence, FLIPRtetra). The experiment is classed as cell-based. The following applies: CHO, read-out: Human Orexin2 receptor inhibition (at 10 μM). In short, it runs like this: (§1)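 Calcium fluorescence measured by FLIPRtetra every second for 2 min after orexin-A challenge, 1 nM final for OX1 and 0.3 nM final for OX2. Receptor-expressing CHO cells received compound in HEPES-buffered HBSS with 0.1% BSA just before agonist.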

Experiment [2] addresses T2, human OX1 receptor (Homo sapiens, UniProt O43613).
T2 construct: expressed in transfected cells; host or cells: CHO cells
T2 sequence (O43613 1-425): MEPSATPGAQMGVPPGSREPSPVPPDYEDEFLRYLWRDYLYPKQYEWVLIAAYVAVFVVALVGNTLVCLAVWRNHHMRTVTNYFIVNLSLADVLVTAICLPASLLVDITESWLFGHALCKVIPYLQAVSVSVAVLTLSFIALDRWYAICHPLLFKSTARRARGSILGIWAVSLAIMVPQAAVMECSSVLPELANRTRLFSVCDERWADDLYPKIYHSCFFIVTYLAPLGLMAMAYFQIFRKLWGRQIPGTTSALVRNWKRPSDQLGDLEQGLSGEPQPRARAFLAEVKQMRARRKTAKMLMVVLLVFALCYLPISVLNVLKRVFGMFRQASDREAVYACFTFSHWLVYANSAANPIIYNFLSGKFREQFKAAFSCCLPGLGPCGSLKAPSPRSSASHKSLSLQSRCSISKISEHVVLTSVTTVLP
Described as above. The following applies: CHO, read-out: Human Orexin1 receptor inhibition (at 10 μM). The experiment is classed as cell-based. A digest of the protocol:
as §1

Setting [3] is: 10 μM test compound, CHO cells expressing human OX2 receptor, OX-A 0.3 nM.
[4] abbreviates: 10 μM test compound, CHO cells expressing human OX1 receptor, OX-A 1 nM.

Where two headings read alike, the source gives them in different places.

As to `Cc1cc(N2CCN(C(=O)c3ccccc3-c3ncccn3)[C@H](C)CO2)nc(C)n1` [Example 213, ((6R)-2-(2,6-dimethylpyrimidin-4-yl)-6-methyl-1,2,5-oxadiazepan-5-yl)(2-(pyrimidin-2-yl)phenyl)methanone], the inhibition at 10 µM in experiment [1] (setting [3]) was 102%; in experiment [2] (setting [4]), 47%.

Consider `Cc1cc(N2CCN(C(=O)c3cc(Cl)ccc3-c3ncc(F)cn3)CCO2)nc(C)n1` [Example 224, (5-chloro-2-(5-fluoropyrimidin-2-yl)phenyl)(2-(2,6-dimethylpyrimidin-4-yl)-1,2,5-oxadiazepan-5-yl)methanone], for which the values for the inhibition at 10 µM in experiment [1] (setting [3]) and in experiment [2] (setting [4]) were 100% and 53%, respectively.

Take `Cc1cc(C)nc(N2CCN(C(=O)c3cc(C#N)ccc3C)CCO2)n1` [Example 83, 3-((2-(4,6-dimethylpyrimidin-2-yl)-1,2,5-oxadiazepan-5-yl)carbonyl)-4-methylbenzonitrile]: the inhibition at 10 µM in experiment [1] is 24%; in experiment [2], 7%.

As to `COc1ccc(Cl)cc1C(=O)N1CCON(c2nc(C)cc(C)n2)CC1` [Example 58, (5-chloro-2-methoxyphenyl) (2-(4,6-dimethylpyrimidin-2-yl)-1,2,5-oxadiazepan-5-yl)methanone], the inhibition at 10 µM turned out to be 99% in experiment [1] and 29% in experiment [2].

For the compound `Cc1cc(N2CC(C)N(C(=O)c3ccccc3-n3nccn3)C[C@H](C)O2)nc(C)n1` (stereo partly drawn) [Example 189, ((7S)-2-(2,6-dimethylpyrimidin-4-yl)-4,7-dimethyl-1,2,5-oxadiazepan-5-yl)(2-(2H-1,2,3-triazol-2-yl)phenyl)methanone], the inhibition at 10 µM is 57% in experiment [1] (setting [3]) and 37% in experiment [2] (setting [4]).

As to `Cc1ccc(-n2nccn2)c(C(=O)N2CCN(c3nc(C)cc(C#N)n3)OC[C@H]2C)c1` [Example 115, 6-methyl-2-((6R)-6-methyl-5-(5-methyl-2-(2H-1,2,3-triazol-2-yl)benzoyl)-1,2,5-oxadiazepan-2-yl)pyrimidine-4-carbonitrile], the inhibition at 10 µM worked out at 100% in experiment [1] (setting [3]) and 103% in experiment [2] (setting [4]).

Consider `Cc1cc(C)nc(N2CCN(C(=O)c3ccc(Cl)cc3Cl)CCO2)n1` [Example 59, (2,4-dichlorophenyl) (2-(4,6-dimethylpyrimidin-2-yl)-1,2,5-oxadiazepan-5-yl)methanone], for which the inhibition at 10 µM came to 65% in experiment [1] and 1% in experiment [2].

With `Cc1cc(N2CCN(C(=O)c3cccc(F)c3-c3ncccn3)C[C@H](C)O2)nc(C)n1` [Example 220, ((7S)-2-(2,6-dimethylpyrimidin-4-yl)-7-methyl-1,2,5-oxadiazepan-5-yl)(3-fluoro-2-(pyrimidin-2-yl)phenyl)methanone], the inhibition at 10 µM in experiment [1] (setting [3]) was 101%; in experiment [2] (setting [4]), 15%.

For `Cc1nc(N2CCN(C(=O)c3cc(F)ccc3-n3nccn3)C[C@H](C)O2)cc(C(F)(F)F)n1` [Example 101, (5-fluoro-2-(2H-1,2,3-triazol-2-yl)phenyl)((7S)-7-methyl-2-(2-methyl-6-(trifluoromethyl)pyrimidin-4-yl)-1,2,5-oxadiazepan-5-yl)methanone], the inhibition at 10 µM in experiment [1] (setting [3]) was 101%; in experiment [2] (setting [4]), 50%.

As for `COc1cccc(N2CCN(C(=O)c3cc(C)ccc3-n3nccn3)[C@H](C)CO2)n1` [Example 126, ((6R)-2-(6-methoxypyridin-2-yl)-6-methyl-1,2,5-oxadiazepan-5-yl) (5-methyl-2-(2H-1,2,3-triazol-2-yl)phenyl)methanone], the inhibition at 10 µM was found to be 97% in experiment [1] (setting [3]) and 96% in experiment [2] (setting [4]).

For `Cc1nccc(N2C[C@H](C)N(C(=O)c3ccccc3-n3nccn3)[C@H](C)CO2)n1` [Example 173, ((4S,6R)-4,6-dimethyl-2-(2-methylpyrimidin-4-yl)-1,2,5-oxadiazepan-5-yl) (2-(2H-1,2,3-triazol-2-yl)phenyl)methanone], the inhibition at 10 µM in experiment [1] (setting [3]) and in experiment [2] (setting [4]) was 103% each time.
